Laboratory results: patent US20260306491A1, “EGFR INHIBITOR FOR TREATING CANCERS COMPRISING ATYPICAL EGFR MUTATIONS” (ORIC Pharmaceuticals, Inc., priority 2023, published 2026)
Counter-ions that a name gives are not always drawn.

Columns and labels:
[1] = Biodistribution in plasma and brain after single oral dose in female CB17 SCID mice; type: in vivo; settings: mouse, oral 50 mg/kg, 8 h
Procedure: Female non-tumor bearing Fox Chase CB17 SCID mice were orally administered a single dose as specified in Table B1.
Brain tissues were excised and plasma was collected from all the animals receiving Compound I, or tucatinib at 1 hour, 4 hours, and 8 hours post-administration. Tucatinib was used as a reference agent. Tucatinib is a clinically approved therapy for HER2 positive breast cancer patients with brain metastases. The harvested brains were rinsed in ice-cold phosphate-buffered saline and weighed. All plasma and brain samples were stored at approximately −80° C. until thawed for LC-MS/MS analysis.
Prior to analysis, brain tissues were homogenized 1:5 with phosphate buffer. Average free brain-to-free plasma ratio (Kp,uu) was calculated from individual mice by using total concentration values determined in the brain and plasma at individual time points, or by calculating the area under the curve (AUC) and converting the values to free concentration (or AUC) with in vitro binding parameters determined in the brain (fu,b) and plasma (fu,p) as follows:
Kp,uu=Brain Concentration (or AUC)*fu,b/Plasma Concentration (or AUC)*fu,p.
Free fraction in the brain (fu,b) and in plasma (fu,p) was determined with equilibrium dialysis as follows: The brain tissue homogenate or plasma from the mice were spiked to yield a final concentration of 1 μM Compound I, or 5 μM tucatinib. Compound I and tucatinib were incubated in equilibrium dialysis plate on a shaking incubator at 37° C. with 5% CO2 at 450 rpm for 8 hours and 24 hours, respectively. Following the incubation, aliquots of the matrix and the buffer samples were sampled and the concentration of Compound I, or tucatinib were determined.
where fu,b,d is fraction unbound determined with 20% brain homogenate.

[2] = Solubility screening of malonate salt of Compound I in various solvents at RT; type: physicochemical
Procedure: The solubility of the malonate salt of Compound I as prepared according to Example 2 in various solvents at RT was measured. The malonate salt of Compound I (approximately 2 mg) was added to a 3-mL glass vial. The solvent was then added stepwise (50/50/200/200/500/1000 μL) into the vial until the solids were dissolved visually or a total volume of 2 mL was reached.

[3] = Moisture uptake by dynamic vapor sorption (DVS); type: physicochemical; settings: 25° C./80% relative humidity
Procedure: DVS was measured via a SMS (Surface Measurement Systems) DVS Intrinsic.
The relative humidity at 25° C. was calibrated against deliquescence point of LiCl, Mg(NO3)2 and KCl.
Freebase Compound I was stirred with an equimolar amount of malonic acid in acetone at RT for 14.5 hrs. The slurry was subjected to vacuum drying at 50° C. for about 6 hrs. The malonate salt of Compound I was analyzed by XRPD, DSC, TGA, ^1H NMR, and DVS. […] As shown in the TGA graph, a weight loss of about 0.7% up to 130° C. was observed.
Freebase Compound I was stirred with an equimolar amount of glycolic acid in acetone at RT for 2 days, followed by vacuum drying at 50° C. for 2 hrs. The glycolate salt of Compound I was analyzed by XRPD, DSC, TGA, ^1H NMR, and DVS. […] As shown in the TGA graph, a weight loss of about 1.3% up to 120° C. was observed.

## Cc1cc(Nc2ncnc3ccc(NC4=NC(C)(C)CO4)cc23)ccc1Oc1ccn2ncnc2c1 [tucatinib, reference compound]
[1]
  Unbound brain concentration: below the limit of quantitation (BLOQ)

## C=CC(=O)Nc1cc(Nc2cc(N3OCC[C@@H]3c3cc(F)cc(F)c3)ncn2)c(OC)cc1N1CCC(N2CCN(C3CC3)CC2)CC1 [malonate salt of Compound I]
[2]; Water, RT
  solubility: < 1200 µg/mL
[2]; organic solvent or mixture, 1,4-Dioxane, RT
  solubility: 2100 to 7000 µg/mL
[2]; organic solvent or mixture, 2-MeTHF, RT
  solubility: 1100 to 2200 µg/mL
[2]; organic solvent or mixture, ACN, RT
  solubility: 6000 to 18000 µg/mL
[2]; organic solvent or mixture, Acetone, RT
  solubility: 1100 to 2200 µg/mL
[2]; organic solvent or mixture, Anisole, RT
  solubility: < 900 µg/mL
[2]; organic solvent or mixture, CHCl3, RT
  solubility: > 40000 µg/mL
[2]; organic solvent or mixture, CPME, RT
  solubility: < 1100 µg/mL
[2]; organic solvent or mixture, DCM, RT
  solubility: 20000 to 40000 µg/mL
[2]; organic solvent or mixture, DMSO, RT
  solubility: > 40000 µg/mL
[2]; organic solvent or mixture, EtOAc, RT
  solubility: < 1000 µg/mL
[2]; organic solvent or mixture, EtOH, RT
  solubility: 1900 to 6300 µg/mL
[2]; organic solvent or mixture, IPA, RT
  solubility: < 1200 µg/mL
[2]; organic solvent or mixture, IPAc, RT
  solubility: < 900 µg/mL
[2]; organic solvent or mixture, MIBK, RT
  solubility: < 1200 µg/mL
[2]; organic solvent or mixture, MTBE, RT
  solubility: < 1000 µg/mL
[2]; organic solvent or mixture, MeOH, RT
  solubility: > 46000 µg/mL
[2]; organic solvent or mixture, THF, RT
  solubility: 2100 to 7000 µg/mL
[2]; organic solvent or mixture, Toluene, RT
  solubility: < 1000 µg/mL
[2]; organic solvent or mixture, n-Heptane, RT
  solubility: < 1100 µg/mL
[3]
  Moisture uptake: 0.19%
